Test results published in PubChem BioAssay (NCI).
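Compound exposure: 48 hours, 5 concentrations, 96-well plates. The concentration for 50% growth inhibition is given as GI50. At the TGI there is no net growth.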

Legend:
Test in all cases: growth of human tumour cells (NCI), 48 h
[1] = system: 786-0 renal
[2] = system: CAKI-1 renal
[3] = system: HCT-15 colon
[4] = system: HL-60(TB) leukemia
[5] = system: SF-268 CNS
[6] = system: SK-MEL-28 melanoma
[7] = system: SK-OV-3 ovarian
[8] = system: U251 CNS
[9] = system: UACC-62 melanoma
[10] = system: RPMI-8226 leukemia

Row | Compound | TGI [1] [µM] | TGI [2] [µM] | TGI [3] [µM] | TGI [4] [µM] | TGI [5] [µM] | TGI [6] [µM] | TGI [7] [µM] | TGI [8] [µM] | TGI [9] [µM] | TGI [10] [µM] | GI50 [3] [µM] | GI50 [4] [µM] | GI50 [10] [µM] | GI50 [6] [µM] | GI50 [7] [µM] | GI50 [9] [µM]
1 | COc1ccc(/C=C2\S/C(=N/Nc3nc(-c4ccccc4)cs3)NC2=O)cc1OC | 93.4 | > 100 | 69 | 22 | > 100 | 69.9 | 63.7 | 87.2 | 74.5 |  |  |  |  |  |  | 
2 | COc1ccc(C2=NN(c3ccccc3)C[N+](c3ccc(OC)cc3)=N2)cc1 | > 100 |  | > 100 | > 100 | > 100 | > 100 |  | 49.8 |  | 67.5 |  |  |  |  |  | 
3 | Cc1cn(Cc2cnnn2CC2OC(n3cc(C)c(=O)[nH]c3=O)CC2O)c(=O)[nH]c1=O (centres undefined) |  | > 100 | > 100 |  | > 100 | > 100 | > 100 | > 100 | > 100 | > 100 |  |  |  |  |  | 
4 | CC1(c2ccc[n+](Cc3ccccc3)c2)OCCO1 | > 100 | > 100 | > 100 | > 100 |  |  | > 100 | > 100 | > 100 | > 100 |  |  |  |  |  | 
5 | COC(=O)C(CSSC[C@H](N/C(C)=C/C(C)=O)C(=O)OC)N/C(C)=C/C(C)=O (some centres undefined) | > 100 | 55.4 |  | > 100 | > 100 | > 100 | > 100 | > 100 | > 100 | 63.5 |  |  |  |  |  | 
6 | c1cn(C23C4C5C6C4C2C6C53)cn1 (centres undefined) | > 100 |  | > 100 | > 100 | > 100 | > 100 | > 100 | > 100 |  | > 100 |  |  |  |  |  | 
7 | O=C(c1cc(Cl)ccc1Cl)N1CCN(C(=O)c2cc(Cl)ccc2Cl)CC1 | > 100 | > 100 | > 100 | > 100 | > 100 | > 100 |  | > 100 |  | > 100 |  |  |  |  |  | 
8 | O=C(Nc1ccccc1)N(CCCCN(Cc1ccccc1)C(=O)Nc1ccccc1)Cc1ccccc1 | > 100 | > 100 | > 100 | > 100 | > 100 | > 100 | > 100 | > 100 | > 100 | > 100 |  |  |  |  |  | 
9 | COC1OC2COC1(OC)C1OC(C)(C)OC21 (centres undefined) | > 100 | > 100 | > 100 |  | > 100 | > 100 | > 100 | > 100 | > 100 | > 100 |  |  |  |  |  | 
10 | O=c1c2cc(I)ccc2nc(-c2cccs2)n1-c1ccc(O)cc1 | 29.8 | 32.9 | 26.1 | 36.7 | 32.8 | 34 |  | 48.5 | 26.9 | 18.3 |  |  |  |  |  | 
11 | COc1ccc(C(=O)/C=C/c2c(Cl)c3c(c(OC)c2Cl)OCC(=O)N3)cc1 |  |  | 6.14 | 10.6 |  | 5.22 | 27.1 |  | 3.59 | 4.07 | 2.01 | 2.49 | 1.07 | 2.18 | 3.59 | 1.68
12 | O=c1[nH]nc(-c2ccccc2)n1/N=C/c1cccnc1 | > 100 | 72.4 | > 100 | > 100 | > 100 | > 100 |  | > 100 |  | > 100 |  |  |  |  |  | 
13 | CCN(C(=S)N[C@H](C(=O)N[C@@H](C)C(=O)OC)C(C)C)c1ccccc1 | > 100 | > 100 | > 100 |  |  | > 100 | > 100 | > 100 | > 100 | > 100 |  |  |  |  |  | 
14 | COc1ccc2c(c1)c(CC(=O)O)c(C)n2C(=O)c1ccc(Cl)cc1 | > 100 | > 100 | > 100 | > 100 | > 100 | > 100 |  | > 100 |  | > 100 |  |  |  |  |  | 
15 | C[C@H]1C[C@H]2[C@@H]3C(C)(C)O[C@]4(O)C(=O)[C@]5(O)[C@@H](C)CC[C@H]1[C@]25C(=O)[C@]34C | > 100 | > 100 | > 100 | 59.2 | > 100 |  | > 100 | > 100 | > 100 | 45.8 |  |  |  |  |  | 
16 | C(CCCCc1nnc(N2CCCCC2)o1)CCCc1nnc(N2CCCCC2)o1 | > 100 | > 100 | > 100 | > 100 | > 100 | > 100 | > 100 | > 100 |  |  |  |  |  |  |  | 
17 | COC(=O)c1c(O)ccc2c1c1c(n2Cc2cccc(C)c2)C(=O)c2ccccc2C1=O | 25.8 | 25.7 | 24.2 | 45.9 | 25.9 | 29.1 | 23.8 | 24.4 |  | 16.9 |  |  |  |  |  | 
18 | COc1ccc(C2N(NC(=O)c3ccncc3)C(=O)CS2(=O)=O)cc1F (centres undefined) |  | > 100 | > 100 | > 100 | > 100 | > 100 | > 100 | > 100 |  | > 100 |  |  |  |  |  | 
19 | O=C1/C(=N\S(=O)(=O)c2ccccc2)C([n+]2ccc(Cc3ccccc3)cc2)=C([O-])c2ccccc21 | 3.58 | 3.44 | 3.36 |  | 3.9 | 2.14 | 18.5 | 5.48 | 2.42 | > 100 |  |  |  |  |  | 
20 | COc1ccc(-c2cc(-c3ccc(Nc4ccnc5cc(Cl)ccc45)cc3)[nH]c(=O)c2C#N)c2ccccc12 | 18.3 | 48.4 | > 100 | 6.04 | > 96.6 | 42.3 | 43.7 |  | 46.7 | 7.28 |  |  |  |  |  | 
21 | CCOC(=O)Cc1cc(OC)c(OC)cc1/C(Cl)=C(\C=O)c1ccc(OC)c(OC)c1 |  | 75.5 | 45.2 | 40.9 |  | 65.7 | 86 | 33.1 | 37.9 | 43.1 |  |  |  |  |  | 
22 | CN1CCN(CCCBr)CC1 | > 100 |  | > 100 | > 100 | > 100 | > 100 | > 100 | > 100 | > 100 | > 100 |  |  |  |  |  | 
23 | CCOc1cc(C2CC(c3ccc(NS(=O)(=O)c4cc([N+](=O)[O-])ccc4C)cc3)=NN2c2ccc([N+](=O)[O-])cc2[N+](=O)[O-])ccc1O (centres undefined) | 6.71 | 56.5 | > 100 | > 100 | 43.9 | 89.4 | 10.4 | 29.2 |  | > 100 |  |  |  |  |  | 
